According to patent US20220267394A1, “COMPOUNDS FOR INDUCING TISSUE FORMATION AND USES THEREOF” (HISTIDE AG, priority 2015, published 2022):
Where no end group is shown, it is not given here.

What was measured:
[1] = tested on: Human Hematopoeitic Stem Cells; assay: Differentiation of human hematopoietic stem cells: CD34+ expression by immunostaining; format: cell-based; details: peptides in solution in the cell culture media, 400 ng/mL, 48 hours
Text: (§1) The following starting materials and reagents were used: • Apatite ceramics (also called apatite or ceramic in the present invention) were synthetized as described in Mater Res. 2004; 7(4): 625-630. • Titanium was obtained from Goodfellow®. • Hydrogel (poly(acrylamide-co-acrylic acid) gel) was synthetized as described in Langmuir 2011; 27(22):13635-42. • PEEK was obtained from Goodfellow®. • PET (Poly(ethylene terephthalate) was obtained from Goodfellow®. • Type-I collagen sponge was obtained from Sigma®. • Hexane was obtained from Sigma®. • 3-succinimidyl-3-maleimidopropionate (SMP) was obtained from Sigma®. • DMF was obtained from Sigma®. • PBS 1× was obtained from Gibco®. • 3-(ethoxydimethylsilyl)propylamine was obtained from Sigma®. • Ammonium persulfate was obtained from Biorad®. • N,N,N′,N′-tetramethylethylenediamine was obtained from Aldrich®. • Acrylamid was obtained from Merck®. • Acrylic acid was obtained from Merck®. • N,N-methylene-bis-acrylamide was obtained from Merck®. • NaOH was obtained from Aldrich®. • N,N,N′,N′-tetramethylethylenediamine was obtained from Aldrich®. • Dimethylaminopropyl-3-ethylcarbodiimide hydrochloride was obtained from Aldrich®. • N-hydroxysuccinimide was obtained from Aldrich®. • 2-(N-morpholino)-ethane sulfonic acid was obtained from Aldrich®. • MilliQ water: is water characterised in terms of resistivity (typically 18.2 MΩ·cm at 25° C.). • Low glucose Dulbecco's Modified Eagle Medium (DMEM) was obtained from Invitrogen® • Minimum Essential Medium Eagle without ascorbic acid (αMEM) was obtained from Invitrogen®. • All of the cell culture experiments were carried out without any serum in the medium for the first 8 hours of culture. • Osteoblast progenitors or precursor osteoblasts: MC3T3-E1 cells were obtained from ATCC®. These cells were cultured in Alpha-MEM medium supplemented with 10% fetal calf serum (FCS) and 1% penicillin/streptomycin. All cells were used at a low passage number (passage 7), were subconfluently cultured and were seeded at 10^4 cells/cm^2 for the purpose of the experiments. • Human bone marrow Mesenchymal Stem Cells (hMSCs) were obtained from Lonza®. These cells were cultured in Alpha-MEM supplemented with 10% (v/v) FBS and 1% penicillin/streptomycin and incubated in a humidified atmosphere containing 5% (v/v) CO2 at 37° C. All cells were used at a low passage number (passage 2 to 4), were subconfluently cultured and were seeded at 10^4 cells/cm^2 for the purpose of the experiments. • Human adipose Mesenchymal Stem Cells (haMSCs) were obtained from Lonza®. These cells were cultured in Alpha-MEM supplemented with 10% (v/v) FBS and 1% penicillin/streptomycin and incubated in a humidified atmosphere containing 5% (v/v) CO2 at 37° C. All cells were used at a low passage number (passage 3 to 4), were subconfluently cultured and were seeded at 10^4 cells/cm^2 for the purpose of the experiments. • Mouse Hair Follicle Stem Cells were isolated and cultured as described in Methods Mol Biol. 2010; 585:401-20. • Neuron cells are Neuronal Schwann Cells obtained from ATCC®. These cells were cultured in Dulbecco's Modified Eagle's Medium supplemented with 10% (v/v) FBS and 1% penicillin/streptomycin and incubated in a humidified atmosphere containing 5% (v/v) CO2 at 37° C. All cells were used at a low passage number (passage 6-8), were subconfluently cultured and were seeded at 10^4 cells/cm^2 for the purpose of the experiments. • Human umbilical-vein endothelial cells (HUVECs) were purchased from Promocell®. HUVECs were isolated and grown on gelatin coated culture flasks in a complete HUVEC culture medium (IMDM (Invitrogen, France) supplemented with 20% (v/v) fetal bovine serum (FBS) (PAA, France) and 0.4% (v/v) EC growth supplement/heparin kit (Promocell, France)). Cells were subcultured by using trypsin/EDTA (Invitrogen, France) and maintained in a humidified atmosphere containing 5% CO2 at 37° C. These cells were used at a passage number 3 to 5 for the purpose of the experiments. […]

[2] = tested on: hMSCs; assay: CD-105 expression by immunostaining; format: cell-based, human; details: Table 7, previously reported peptides in solution (not combined with a bioactive carrier)
Description: For this type of quantification the freeware image analysis ImageJ® software was used. The raw image was first converted to an 8-bit file, and then the unsharp mask feature was used (settings 1:0.2) to remove the image background (rolling ball radius 10). After smoothing, the resulting image, which appears similar to the original photomicrograph but with minimal background, was then converted to a binary image by setting a threshold. Threshold values were determined empirically by selecting a setting, which gave the most accurate binary image for a subset of randomly selected photomicrographs. The cell area was determined by manual delineation on raw fluorescent images. Total contact area and mean contact area per cell were calculated by “analyse particules” in ImageJ®. A minimum of 30 cells per condition were analyzed. Stro-1, CD-34+, and CD-105 expressions were determined using this procedure.
Likewise, using the method detailed in the description, the RMSD of another 27 previously reported peptide sequences have been determined (Table 7) and correlated with the expressions of STRO-1 and CD-105 in solution. […] Data were obtained with peptides in solution (i.e. not combined with a bioactive carrier).

[3] = tested on: hMSCs; assay: Loss of stemness: STRO-1 expression by immunostaining; format: cell-based, human
Outline: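 hMSCs cultured on plastic with GFR-binding peptides in solution (some sequences tested with a bioactive carrier), then fixed, permeabilized and immunostained for Stro-1. Stro-1-positive contact number and area quantified by thresholded image analysis, minimum 30 cells per condition.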

[4] = Stability of non-covalent deposit of FITC-labelled peptides on apatite ceramics or type-I collagen sponge; format: physicochemical; details: non-covalent coating, after 3, 7 or 10 days
Description: Non-covalent modifications of the materials were performed in air atmosphere at room temperature. The non-covalent coating strategy consisted in using a mixture of inducing peptide (SEQ ID NO: 23; concentration of 1×10^−3M) with an apatite ceramics implant or a mixture of inducing peptide (SEQ ID NO: 22; concentration of 1×10^−3M) with a type-I collagen sponge. The non-covalently coated conventional materials were characterized by using fluorescent peptides (Here SEQ ID NO: 22 and 23 covalently bound to fluorescein isothiocyanate (FITC), FIG. 6). The results shown here in FIG. 6 were obtained from experiments performed with apatite ceramics and a type-I collagen sponge. […] Indeed, after 3, 7 or 10 days, the osteogenic peptides were still coupled to the ceramics or the type-I collagen (FIGS. 7a and b).

[5] = tested on: hMSCs; assay: Cartilage regeneration: chondrocyte differentiation of hMSCs on 14 kPa hydrogels (Sox9, Aggrecan); format: cell-based, human; details: 14 kPa hydrogels covalently modified with peptides, 96 hours
Description: Total RNA was extracted by using the RNeasy total RNA kit (Qiagen®) according to the manufacturer's instructions. Purified total RNA was used as a template in order to make cDNA by a reverse transcription reaction (Gibco Brl®) with random primers (Invitrogen®). The cDNA was then used as a template for a real-time PCR amplification in the presence of SYBR green reagents (Bio-Rad®) by using a thermocycler (iCycler, Biorad®). Data were analyzed with the iCycler IQ™® software and compared by the ΔΔCt method. […]
Total RNA was extracted by using the RNeasy Mini Kit (Qiagen) and […] RNA was used for cDNA synthesis with AMV kit (Invitrogen®) according to the manufacturer' instructions. Semi-quantitative reverse transcriptase-polymerase chain reaction (RT-PCR) was performed with Taq DNA Polymerase (Invitrogen®) in a thermocycler (Bio-Rad®). […] The PCR products were analyzed on 2% agarose gels. For the Aggrecan gene, the PCR bands were densitometrically quantified by using the BioCapt software (Vilber). […]
It was then verified that these hMSCs cultured on the covalently modified hydrogels were differentiated into chondrocyte cells by analyzing the expression of the chondrocyte gene biomarker: Aggrecan. […] For that a semi-quantitative RT-PCR was performed as described in the Methods section for the Aggrecan gene and a Quantitative Real Time PCR for Sox9.

[6] = tested on: Hair Follicle Stem Cells; assay: Loss of quiescence and activation of hair follicle stem cells on 73 kPa hydrogels (Sox2, BMP-6 release); format: cell-based, mouse; details: 73 kPa hydrogels covalently modified with peptides
Text: as §1, with “C.” for “C. All cells were used at a low passage number (passage 3 to 4), were subconfluently cultured and were seeded at 10^4 cells/cm^2 for the purpose of the experiments. • Mouse Hair Follicle Stem Cells were isolated and cultured as described in Methods Mol Biol. 2010; 585:401-20. • Neuron cells are Neuronal Schwann Cells obtained from ATCC®. These cells were cultured in Dulbecco's Modified Eagle's Medium supplemented with 10% (v/v) FBS and 1% penicillin/streptomycin and incubated in a humidified atmosphere containing 5% (v/v) CO2 at 37° C. All cells were used at a low passage number (passage 6-8), were subconfluently cultured and were seeded at 10^4 cells/cm^2 for the purpose of the experiments. • Human umbilical-vein endothelial cells (HUVECs) were purchased from Promocell®. HUVECs were isolated and grown on gelatin coated culture flasks in a complete HUVEC culture medium (IMDM (Invitrogen, France) supplemented with 20% (v/v) fetal bovine serum (FBS) (PAA, France) and 0.4% (v/v) EC growth supplement/heparin kit (Promocell, France)). Cells were subcultured by using trypsin/EDTA (Invitrogen, France) and maintained in a humidified atmosphere containing 5% CO2 at 37° C. These cells were used at a passage number 3 to 5 for the purpose of the experiments.”

[7] = Table 7, previously reported peptides in solution (not combined with a bioactive carrier)
[8] = Table 8, SEQ ID NO: 1 to 49 tested in combination with a bioactive carrier (titanium, ceramics, collagen, etc.)

## 2151 (PTSSVPTGGRSVKMAKVDKGVVTYKEVQVMVVAESKSS; GFR-binding peptide) [compound 2151]
[1]
  CD34+ Expression (%): 24%

## 2155 (EPSSSRVRLEPLTTLYYGGGGGGGEQLSNVVEEHSKSS; GFR-binding peptide) [compound 2155]
[1]
  CD34+ Expression (%): 29%

## 2235 (APTALSAISMLYFDESGNVVLRQYEDMVVEG; Peptide reported in US20120244575, SEQ ID NO:4400) [compound 2235]
[2]
  CD-105 expression (%): 63%
[3]; [7]
  STRO-1 expression (%): 77%

## 2148 (KASSVPQEERPVQMRKIGGGGGGGKKATVMIVRSSKSS; GFR-binding peptide) [compound 2148]
[1]
  CD34+ Expression (%): 32%

## 2153 (KASSSRVKMSNITVQIMRIKPHQGQHIGEMSVVEEHASGSH; GFR-binding peptide) [compound 2153]
[1]
  CD34+ Expression (%): 22%

## 2215 (VPQTLDPLPIIYYVGRNVRVEQLSNMVVRA; Comparative sequence) [compound 2215]
[2]
  CD-105 expression (%): 68%
[3]; [7]
  STRO-1 expression (%): 71%

## 2147 (IPKASSAPVGQRPVQMRKIDKGVVTYKKATVSSVEESGSL; GFR-binding peptide) [compound 2147]
[1]
  CD34+ Expression (%): 27%

## 2238 (CCAPTELSAISVLYFDDSSNVILKKYEDMVVEACGCR; Comparative sequence) [compound 2238]
[2]
  CD-105 expression (%): 72%
[3]; [7]
  STRO-1 expression (%): 76%

## 2240 (KPCCAPTELSAISVLYFDDSSNVILKKYEDMVVEACGCR; Peptide reported in US20050250936, SEQ ID NO:119) [compound 2240]
[2]
  CD-105 expression (%): 69%
[3]; [7]
  STRO-1 expression (%): 73%

## GTPGPKVPKPSSAPTQLSAISTLYLDEYDKVVLKNYQNMAVR (GTPGPKVPKPXXAPTQLSAISTLYLDEYDKVVLKNYQNMAVR; GFR-binding peptide; MOD_RES (11), (12): Xaa is C or S) [SEQ ID NO: 23]
[4]
  release of peptide from apatite ceramics over time: no significant release

## 2152 (IPKASSVPQSSSNITMQIMGGGGGGGIGEMSSSVKSSGSL; GFR-binding peptide) [compound 2152]
[1]
  CD34+ Expression (%): 30%

## CKIPKASSVPTELEPLPIVYYVGRKPKVEQLSNMIVRS (CKIPKAXXVPTELEPLPIVYYVGRKPKVEQLSNMIVRS; GFR-binding peptide; MOD_RES (7), (8): Xaa is C or S) [SEQ ID NO: 36]
[5]
  Sox9 protein expression: expression of the Sox9 protein was observed

## 2230 (CCVPERLSPISVLFFDNEDNVVLRHYEDMVVDECGCR; Comparative sequence) [compound 2230]
[2]
  CD-105 expression (%): 78%
[3]; [7]
  STRO-1 expression (%): 81%

## 2150 (PTSSAPTDLRSVKMAKVEIVRKKPIFKEVQVDMVVKASGSH; GFR-binding peptide) [compound 2150]
[1]
  CD34+ Expression (%): 26%

## 42 (CGIPEPSSVPEKTSSLSLLFFDENKNVVLKVYPNM; not fully specified; ends and bridges not checked) [compound 42]
[3]; [8]
  STRO-1 expression (%): 28%
[6]
  BMP-6 release in the cell culture medium: decrease
  Sox2 protein expression: increase

## CGIPEPSSVPEKMSSLSILFFDENKNVVLKVYPNM (CGIPEPXXVPEKMSSLSILFFDENKNVVLKVYPNM; GFR-binding peptide; MOD_RES (7), (8): Xaa is C or S) [SEQ ID NO: 41]
[6]
  BMP-6 release in the cell culture medium: decrease
  Sox2 protein expression: increase

## 2149 (VSQAARPVQTRKIDDMGVPTKKATVAAVKS; GFR-binding peptide) [compound 2149]
[1]
  CD34+ Expression (%): 28%

## 2157 (EPSSVSQAAEPLPIVYYRIKPHQGQHEQLSNMIVKSSKSS; GFR-binding peptide) [compound 2157]
[1]
  CD34+ Expression (%): 23%

## 37 (CASAAPSSVPQALEPLPIVYYVGRTPKVEQLSNMIVRSSK; not fully specified; ends and bridges not checked) [compound 37]
[3]; [8]
  STRO-1 expression (%): 21%
[5]
  Sox9 protein expression: expression of the Sox9 protein was observed

## 2156 (APVKMEPLPTVYYDDMGVPTEQLSNDMVEESGSL; GFR-binding peptide) [compound 2156]
[1]
  CD34+ Expression (%): 25%

## 2154 (VPTAAEPLTMLYYEIVRKKPIFEQLSNMVEHS; GFR-binding peptide) [compound 2154]
[1]
  CD34+ Expression (%): 21%

## WWFWGKVPKPSSAPTQLSAISTLYLDEYDKVVLKNYQNMVVR (WWFWGKVPKPXXAPTQLSAISTLYLDEYDKVVLKNYQNMVVR; GFR-binding peptide; MOD_RES (11), (12): Xaa is C or S) [SEQ ID NO: 22]
[4]
  release of peptide from type-I collagen sponge over time: no significant release
